Organism: Rattus norvegicus
Assay: DrugMatrix - Regimen: Daily Repeat
Format: toxicity, organism-based, Sprague-Dawley
Design: regimen Daily Repeat, gender Male, age 6-8 weeks
Conditions: in vivo, po, route oral GAVAGE, vehicle 100 % WATER; for ABSOLUTE BASOPHIL / ABSOLUTE EOSINOPHIL / ABSOLUTE LYMPHOCYTE / ABSOLUTE MONOCYTE / ABSOLUTE SEGMENTED NEUTROPHIL / BASOPHIL / EOSINOPHIL / ERYTHROCYTE COUNT / HEMATOCRIT / HEMOGLOBIN / LEUKOCYTE COUNT / LYMPHOCYTE / MEAN CORPUSCULAR HEMOGLOBIN / MEAN CORPUSCULAR HEMOGLOBIN CONCENTRATION / MEAN CORPUSCULAR VOLUME / MONOCYTE / NEUTROPHIL / NUCLEATED RED BLOOD CELLS / PLATELET COUNT: tissue Blood; for ALANINE AMINOTRANSFERASE / ALBUMIN / ALKALINE PHOSPHATASE / ASPARTATE AMINOTRANSFERASE / BLOOD UREA NITROGEN / CARBON DIOXIDE / CHLORIDE / CHOLESTEROL / CREATINE PHOSPHOKINASE / CREATININE / GLUCOSE / LACTATE DEHYDROGENASE / LIPASE / PHOSPHORUS / POTASSIUM / SODIUM / TOTAL BILIRUBIN / TOTAL PROTEIN / URIC ACID: tissue Plasma
[1] = 0 mg/kg, 72 h, dose level Control, time 3 day
[2] = 0 mg/kg, 120 h, dose level Control, time 5 day
[3] = 28 mg/kg, 72 h, dose level Low, time 3 day

Structure (SMILES): CS(=O)(=O)c1ccc([C@@H](O)[C@@H](CO)NC(=O)C(Cl)Cl)cc1 [THIAMPHENICOL]
- ABSOLUTE BASOPHIL [1]: 0 CELLS/uL
- ABSOLUTE EOSINOPHIL [1]: 151.33 CELLS/uL
- ABSOLUTE LYMPHOCYTE [1]: 10599.5 CELLS/uL
- ABSOLUTE MONOCYTE [1]: 109.5 CELLS/uL
- ABSOLUTE SEGMENTED NEUTROPHIL [1]: 1139.67 CELLS/uL
- BASOPHIL [1]: 0%
- EOSINOPHIL [1]: 0.83%
- ERYTHROCYTE COUNT [1]: 5.54 x10E6/uL
- HEMATOCRIT [1]: 35.35%
- HEMOGLOBIN [1]: 13.22 G/DL
- LEUKOCYTE COUNT [1]: 12 x10E3/uL
- LYMPHOCYTE [1]: 89%
- MEAN CORPUSCULAR HEMOGLOBIN [1]: 23.88 pg
- MEAN CORPUSCULAR HEMOGLOBIN CONCENTRATION [1]: 37.4 G/DL
- MEAN CORPUSCULAR VOLUME [1]: 63.85 fL
- MONOCYTE [1]: 1%
- NEUTROPHIL [1]: 9.17%
- NUCLEATED RED BLOOD CELLS [1]: 0 /100WBC
- PLATELET COUNT [1]: 1333.33 x10E3/uL
- ALANINE AMINOTRANSFERASE [1]: 53.17 u/L
- ALBUMIN [1]: 4.32 G/DL
- ALKALINE PHOSPHATASE [1]: 404.33 u/L
- ASPARTATE AMINOTRANSFERASE [1]: 83.17 u/L
- BLOOD UREA NITROGEN [1]: 15.67 mg/dL
- CARBON DIOXIDE [1]: 27.33 mmol/L
- CHLORIDE [1]: 101.83 MEQ/L
- CHOLESTEROL [1]: 68.67 mg/dL
- CREATINE PHOSPHOKINASE [1]: 276.17 u/L
- CREATININE [1]: 0.18 mg/dL
- GLUCOSE [1]: 163.5 mg/dL
- LACTATE DEHYDROGENASE [1]: 144.67 u/L
- LIPASE [1]: 8.83 u/L
- PHOSPHORUS [1]: 11.72 mg/dL
- POTASSIUM [1]: 5.99 MEQ/L
- SODIUM [1]: 143.57 MEQ/L
- TOTAL BILIRUBIN [1]: 0.2 mg/dL
- TOTAL PROTEIN [1]: 6.1 G/DL
- URIC ACID [1]: 1.38 mg/dL
- ABSOLUTE BASOPHIL [2]: 0 CELLS/uL
- ABSOLUTE EOSINOPHIL [2]: 248.67 CELLS/uL
- ABSOLUTE LYMPHOCYTE [2]: 12977.83 CELLS/uL
- ABSOLUTE MONOCYTE [2]: 19.67 CELLS/uL
- ABSOLUTE SEGMENTED NEUTROPHIL [2]: 1137.17 CELLS/uL
- BASOPHIL [2]: 0%
- EOSINOPHIL [2]: 1.67%
- ERYTHROCYTE COUNT [2]: 5.82 x10E6/uL
- HEMATOCRIT [2]: 36.35%
- HEMOGLOBIN [2]: 13.58 G/DL
- LEUKOCYTE COUNT [2]: 14.38 x10E3/uL
- LYMPHOCYTE [2]: 90.5%
- MEAN CORPUSCULAR HEMOGLOBIN [2]: 23.32 pg
- MEAN CORPUSCULAR HEMOGLOBIN CONCENTRATION [2]: 37.42 G/DL
- MEAN CORPUSCULAR VOLUME [2]: 62.42 fL
- MONOCYTE [2]: 0.17%
- NEUTROPHIL [2]: 7.67%
- NUCLEATED RED BLOOD CELLS [2]: 0 /100WBC
- PLATELET COUNT [2]: 1337.67 x10E3/uL
- ALANINE AMINOTRANSFERASE [2]: 48.5 u/L
- ALBUMIN [2]: 4.32 G/DL
- ALKALINE PHOSPHATASE [2]: 354.33 u/L
- ASPARTATE AMINOTRANSFERASE [2]: 80 u/L
- BLOOD UREA NITROGEN [2]: 16 mg/dL
- CARBON DIOXIDE [2]: 27.33 mmol/L
- CHLORIDE [2]: 100.33 MEQ/L
- CHOLESTEROL [2]: 68 mg/dL
- CREATINE PHOSPHOKINASE [2]: 325.17 u/L
- CREATININE [2]: 0.23 mg/dL
- GLUCOSE [2]: 172 mg/dL
- LACTATE DEHYDROGENASE [2]: 254.83 u/L
- LIPASE [2]: 8.33 u/L
- PHOSPHORUS [2]: 12.17 mg/dL
- POTASSIUM [2]: 6.28 MEQ/L
- SODIUM [2]: 143.57 MEQ/L
- TOTAL BILIRUBIN [2]: 0.18 mg/dL
- TOTAL PROTEIN [2]: 6.12 G/DL
- URIC ACID [2]: 1.78 mg/dL
- ABSOLUTE BASOPHIL [3]: 0 CELLS/uL
- ABSOLUTE EOSINOPHIL [3]: 49.67 CELLS/uL
- ABSOLUTE LYMPHOCYTE [3]: 5981.33 CELLS/uL
- ABSOLUTE MONOCYTE [3]: 18.33 CELLS/uL
- ABSOLUTE SEGMENTED NEUTROPHIL [3]: 584 CELLS/uL
- BASOPHIL [3]: 0%
- EOSINOPHIL [3]: 0.67%
- ERYTHROCYTE COUNT [3]: 5.43 x10E6/uL
- HEMATOCRIT [3]: 34.57%
- HEMOGLOBIN [3]: 13.07 G/DL
- LEUKOCYTE COUNT [3]: 6.63 x10E3/uL
- LYMPHOCYTE [3]: 90%
- MEAN CORPUSCULAR HEMOGLOBIN [3]: 24 pg
- MEAN CORPUSCULAR HEMOGLOBIN CONCENTRATION [3]: 37.8 G/DL
- MEAN CORPUSCULAR VOLUME [3]: 63.6 fL
- MONOCYTE [3]: 0.33%
- NEUTROPHIL [3]: 9%
- NUCLEATED RED BLOOD CELLS [3]: 0 /100WBC
- PLATELET COUNT [3]: 1197 x10E3/uL
- ALANINE AMINOTRANSFERASE [3]: 57.33 u/L
- ALBUMIN [3]: 4.33 G/DL
- ALKALINE PHOSPHATASE [3]: 344.67 u/L
- ASPARTATE AMINOTRANSFERASE [3]: 83 u/L
- BLOOD UREA NITROGEN [3]: 16 mg/dL
- CARBON DIOXIDE [3]: 29 mmol/L
- CHLORIDE [3]: 102.33 MEQ/L
- CHOLESTEROL [3]: 74.33 mg/dL
- CREATINE PHOSPHOKINASE [3]: 180 u/L
- CREATININE [3]: 0.21 mg/dL
- GLUCOSE [3]: 145.33 mg/dL
- LACTATE DEHYDROGENASE [3]: 123 u/L
- LIPASE [3]: 8.33 u/L
- PHOSPHORUS [3]: 13.03 mg/dL
- POTASSIUM [3]: 6.66 MEQ/L
- SODIUM [3]: 147.17 MEQ/L
- TOTAL BILIRUBIN [3]: 0.17 mg/dL
- TOTAL PROTEIN [3]: 6.53 G/DL
- URIC ACID [3]: 1.33 mg/dL

Source: ChEMBL document CHEMBL3885881, “DrugMatrix”
